# Source: patent publication US4317917A, “Derivatives of methyl-substituted or methoxy-substituted 2-hydroxybenzoic acids, and pharmaceutical formulations containing them” (priority 1979, dated 1982)
# Columns and labels:
# Haemophilus influeniae = assay: In vitro antibacterial activity, minimum inhibiting concentration (C.M.I.), Haemophilus influeniae; type: cell-based; details: Gram (-), Difco nutrient broth
# Protocol: (§1) The antiseptic power of the substance under examination was evaluated by determining the minimum inhibiting concentration (C.M.I.) on a series of Gram negative and Gram positive germs related to the pathology of the respiratory tree.
# (§2) The culture broth used was Difco nutrient broth, and 8 test samples were used for each concentration tested. Guaiacol was used as the comparison drug.
# [1] = system: Micrococcus tuberc. (bovis); assay: In vitro antibacterial activity, minimum inhibiting concentration (C.M.I.), Micrococcus tuberc. (bovis); type: cell-based; details: read-out: Minimum inhibiting concentration
# Protocol: as §1, §2
# Micrococcus catarrhalis = assay: In vitro antibacterial activity, minimum inhibiting concentration (C.M.I.), Micrococcus catarrhalis; type: cell-based; details: Gram (-), Difco nutrient broth
# Protocol: as §1, §2
# Sarcina lutea = assay: In vitro antibacterial activity, minimum inhibiting concentration (C.M.I.), Sarcina lutea; type: cell-based; details: Micrococcus luteus, Gram (+), Difco nutrient broth
# Protocol: as §1, §2
# Micrococcus pyogenes = assay: In vitro antibacterial activity, minimum inhibiting concentration (C.M.I.), Micrococcus pyogenes; type: cell-based; details: Staphylococcus aureus, Gram (+), Difco nutrient broth
# Protocol: as §1, §2
# painful reaction = assay: Analgesic activity in the mouse (method of Ben Bassat and coll.); type: in vivo; details: 100 mg/kg oral
# Protocol: The analgesic activity of the compound under examination was tested in the mouse by the method of Ben Bassat and coll. (Arch. Int. Pharmacodyn, 122, 434, 1954) and comparing the drug in question with Tanderil® (T).
# [2] = system: edema induced in the rear paw of the rat by carrageen; assay: Antiinflammatory activity, edema by carrageen in the rear paw of the rat (method of Winter); type: in vivo, Wistar rat
# Protocol: The antiinflammatory activity of AF1 was evaluated in comparison with that of a known drug (Tanderil®) by inhibiting the edema induced in the rear paw of the rat by carrageen. The method used is that described by Winter.
# The substances examined were administered orally to Wistar rats having a body weight of 165±15 g.
# The percentage edema inhibition for the various groups of animals was calculated by putting the average percentage increase of the control group equal to 100.
# stomachs = assay: Ulcerogenic action in the female Wistar rat; type: in vivo; details: four hours after treatment
# Protocol: The ulcerogenic action of the product was evaluated in the female Wistar rat in comparison with that of other known antiinflammatory drugs.
# The products were administered orally in a dose corresponding to about two fifths their LD50.
# The animals were sacrificed four hours after treatment, and the stomachs examined to check any presence of ulcers.
# rat = assay: Subacute toxicity in the rat by intramuscular administration; type: in vivo; details: 60 and 120 mg/kg/die, 25 consecutive days
# Protocol: 2. Subacute toxicity in the rat by intramuscular administration
# The test was carried out for 25 consecutive days using drug doses of 60 and 120 mg/kg/die.
# [3] = system: conjunctival sac of the eye of a rabbit; assay: Local tolerability check, conjunctival sac of the rabbit eye; type: in vivo; details: 0.5 solution dropped into conjunctival sac
# [4] = system: tissues where the drug was introduced; assay: Local tolerability check, intramuscular administration in the rat; type: in vivo; details: 60-120 mg/kg/die, 25 consecutive days
# [5] = Acute toxicity (LD50) in the Swiss mouse; details: in vivo, 95% reliability limits in brackets, seventh day
# Protocol: (§3) Acute toxicity of the product was studied in the Swiss mouse and Wistar rat by oral and intraperitoneal administration. The substance was carried in 5% gum arabic for both methods of administration. The volumes inoculated for both methods of administration were 20 ml/kg of body weight for the mouse and 5 ml/kg for the rat. The LD50 values expressed in mg/kg were calculated on the seventh day of treatment by the probital analysis method.
# edema induced by kaolin = assay: Antiinflammatory activity, edema by kaolin, diameter of the tibiotarsal joint; type: in vivo, rat
# Protocol: The antiedematous action of AF1 was also investigated by the test of Conbon and coll. (Arch.Int.Pharmacodyn. 99; 474, 1954), consisting of measuring the diameter of the tibiotarsal joint in both the rear paws of the rat. Groups of five animals representing controls and treated animals were used for two separate experiments. 0.2 ml of a sterile 10% kaolin suspension was injected directly into the joint of the two rear paws of each animal.
# The joint diameter was measured one hour after the kaolin injection and then every 24 hours afterwards for five consecutive days. The AF1 compound was administered intraperitoneally in a quantity of 100 mg/kg one hour after the kaolin injection and at the same time on the following days over the entire test period.
# [6] = Acute toxicity (LD50) in the Wistar rat; details: in vivo, seventh day
# Protocol: as §3
# [7] = system: gastric or duodenal lesion; assay: Gastric or duodenal lesions in mice treated for 5 consecutive days; type: in vivo; details: 200 mg/kg per day
# [8] = day 1 after kaolin, 100 mg/kg/day intraperitoneally
# [9] = day 2 after kaolin, 100 mg/kg/day intraperitoneally
# [10] = day 3 after kaolin, 100 mg/kg/day intraperitoneally
# [11] = day 4 after kaolin, 100 mg/kg/day intraperitoneally
# [12] = day 5 after kaolin, 100 mg/kg/day intraperitoneally
smiles,measurement,setting,value
"COc1ccccc1O [Guaiacol, reference compound]",MIC,Haemophilus influeniae,33 mg/mL
same,MIC,[1],33 mg/mL
same,MIC,Micrococcus catarrhalis,16.6 mg/mL
same,MIC,Sarcina lutea,33 mg/mL
same,MIC,Micrococcus pyogenes,33 mg/mL
"CCCCC1C(=O)N(c2ccccc2)N(c2ccc(O)cc2)C1=O (stereo not shown) [Tanderil, reference compound]",% Increase in the painful reaction time relative to the controls,painful reaction; 30 min.,11%
same,% Increase in the painful reaction time relative to the controls,painful reaction; 60 min.,14%
same,% Increase in the painful reaction time relative to the controls,painful reaction; 90 min.,15%
same,% Increase in the painful reaction time relative to the controls,painful reaction; 120 min.,20%
same,% Increase in the painful reaction time relative to the controls,painful reaction; 150 min.,21%
same,Percentage edema inhibition relative to the controls,"[2]; 25 mg/kg oral, 4 hours",58%
same,Percentage edema inhibition relative to the controls,"[2]; 25 mg/kg oral, 6 hours",68%
same,Percentage edema inhibition relative to the controls,"[2]; 50 mg/kg oral, 4 hours",56%
same,Percentage edema inhibition relative to the controls,"[2]; 50 mg/kg oral, 6 hours",78%
"Cc1ccc(OC(=O)C=Cc2ccccc2)c(C(=O)O)c1 [AF1, 2-(3-phenyl-2-propenoyloxy)-5-methylbenzoic acid]",% Increase in the painful reaction time relative to the controls,painful reaction; 30 min.,22%
same,% Increase in the painful reaction time relative to the controls,painful reaction; 60 min.,32%
same,% Increase in the painful reaction time relative to the controls,painful reaction; 90 min.,36%
same,% Increase in the painful reaction time relative to the controls,painful reaction; 120 min.,48%
same,% Increase in the painful reaction time relative to the controls,painful reaction; 150 min.,51%
same,No. of ulcerated animals/No. of treated animals,stomachs; 400 mg/kg oral,0/10
same,No. of ulcerated animals/No. of treated animals,stomachs; 800 mg/kg oral,1/10
same,MIC,Haemophilus influeniae,16 mg/mL
same,MIC,[1],3.15 mg/mL
same,MIC,Micrococcus catarrhalis,4.3 mg/mL
same,MIC,Sarcina lutea,9.15 mg/mL
same,condition of the rats,rat,always excellent
same,significant changes in general condition and weight,rat,neither were there significant changes in general condition and weight
same,Percentage edema inhibition relative to the controls,"[2]; 25 mg/kg oral, 4 hours",42%
same,Percentage edema inhibition relative to the controls,"[2]; 25 mg/kg oral, 6 hours",71%
same,Percentage edema inhibition relative to the controls,"[2]; 50 mg/kg oral, 4 hours",62%
same,Percentage edema inhibition relative to the controls,"[2]; 50 mg/kg oral, 6 hours",84%
same,Percentage edema inhibition relative to the controls,"[2]; 75 mg/kg oral, 4 hours",73%
same,Percentage edema inhibition relative to the controls,"[2]; 75 mg/kg oral, 6 hours",87%
same,irritating or damaging modification to local tissues,[3],no irritating or otherwise damaging modification to local tissues
same,MIC,Micrococcus pyogenes,16.6 mg/mL
same,macroscopic change in the tissues where the drug was introduced,[4],no macroscopic change in the tissues where the drug was introduced
same,other undesirable local phenomena,[4],neither were other undesirable local phenomena observed
same,LD50 at 168 h,[5]; ip,410 mg/kg
same,LD50 at 168 h,[5]; oral,902 mg/kg
same,"Average of diameters, treated animals",edema induced by kaolin; 0 + 1 hour after kaolin (time of first AF1 dose),6.9 mm
same,"Average of diameters, treated animals","edema induced by kaolin; day 0 (baseline, before AF1)",5.8 mm
same,% change in tibiotarsal joint diameter relative to controls,edema induced by kaolin; [8],-11.1%
same,"Average of diameters, treated animals",edema induced by kaolin; [8],8.8 mm
same,% change in tibiotarsal joint diameter relative to controls,edema induced by kaolin; [9],-14.7%
same,"Average of diameters, treated animals",edema induced by kaolin; [9],8.7 mm
same,% change in tibiotarsal joint diameter relative to controls,edema induced by kaolin; [10],-26.6%
same,"Average of diameters, treated animals",edema induced by kaolin; [10],8.0 mm
same,% change in tibiotarsal joint diameter relative to controls,edema induced by kaolin; [11],-23.3%
same,"Average of diameters, treated animals",edema induced by kaolin; [11],7.9 mm
same,% change in tibiotarsal joint diameter relative to controls,edema induced by kaolin; [12],-25.7%
same,"Average of diameters, treated animals",edema induced by kaolin; [12],7.5 mm
same,LD50 at 168 h,"[6]; ip, 95% reliability limits in brackets",734 mg/kg
same,LD50 at 168 h,[6]; oral,> 2000 mg/kg
same,gastric or duodenal lesion,[7],no sign of any gastric or duodenal lesion
"COc1ccc2cc([C@H](C)C(=O)O)ccc2c1 [Naproxen, reference compound]",No. of ulcerated animals/No. of treated animals,stomachs; 200 mg/kg oral,5/10
